For data set [1], the target named is T1, apoaequorin (Aequorea victoria, UniProt P07164).
T1 construct: purchased Chisso Corporation
Briefly: Fluorescence spectra of semi-synthetic gFP (coelenteramide analogue + apoaequorin, EDTA). Type of data set: physicochemical. Conditions: 10 mM EDTA buffer, excitation 337 nm. The gist of the method: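 Apoaequorin (0.2 mg) incubated with coelenteramide analogue 16 h at 4 °C in 50 mM Tris-HCl pH 7.6, 10 mM EDTA, 1 mM DTT to form semi-synthetic gFP. Emission spectra at 25 °C, excitation 337 nm. Analogue-alone controls at 8 μg/ml final, in EDTA or 10 mM CaCl2 buffer.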

Data set [2] can be described thus: Fluorescence spectra of coelenteramide analogue alone (absence of apoaequorin). The class given is physicochemical. Conditions: analogue alone 8 μg/ml. The gist of the method:
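Coelenteramide analogue at 8 μg/ml without apoaequorin in 50 mM Tris-HCl pH 7.6 with 1 mM DTT plus either 10 mM EDTA or 10 mM CaCl2. Fluorescence spectra recorded at 25° C, excitation 337 nm, 3 nm bandwidth.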

Data set [3] addresses T1, apoaequorin. The data set is described as follows: Fluorescence spectra of semi-synthetic BFP (coelenteramide analogue + apoaequorin, CaCl2). The class given is physicochemical. Conditions: 10 mM CaCl2 buffer, excitation 337 nm. The gist of the method: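 Apoaequorin (0.2 mg) was mixed with coelenteramide analogue in 50 mM Tris-HCl pH 7.6, 10 mM CaCl2, 1 mM DTT and held 16 h at 4° C. Analogue-alone controls were run at 8 μg/ml final in the same buffer with 10 mM EDTA or CaCl2. Spectra were recorded at 25° C., excitation 337 nm.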

For data set [4], the target named is T1, apoaequorin. Briefly: Luciferase activity of semi-synthetic BFPs using coelenterazine as substrate. Type of data set: biochemical. To be noted: Imax, 10 mM CaCl2, 10 seconds, BFP from CTMD = 100. As to the method: To confirm that semi-synthetic BFPs prepared from coelenteramide analogues and apoaequorin, which are novel fluorescent proteins having luciferase activity, the luminescence reaction was performed in the presence of calcium ions, using coelenterazine as a light emitting substrate. After 5 μl (corresponding to 1 μg protein) of a solution of semi-synthetic BFP prepared in EXAMPLE 12 was added to 100 μl of 50 mM Tris-HC 1 (pH 7.6) containing 10 mM CaCl2, 1 μl of a solution of coelenterazine (1 μg/μl) in ethanol was mixed with the solution to start the luminescence reaction. The luminescence activity was measured for 10 seconds on a luminometer luminescencer-PSN AB2200 (manufactured by Atto Co., Ltd.). The luminescence activity was determined by repeating the measurement of luminescence activity described above twice and expressed in terms of the maximum luminescence intensity (Imax) of luminescence activity.

[5] abbreviates: 10 mM CaCl2 buffer pH 7.6, excitation 337 nm.
Setting [6] is: 10 mM EDTA buffer pH 7.6, excitation 337 nm.

T1 sequence (P07164 other isoform, or with tags, fused parts or gaps with the stated changes): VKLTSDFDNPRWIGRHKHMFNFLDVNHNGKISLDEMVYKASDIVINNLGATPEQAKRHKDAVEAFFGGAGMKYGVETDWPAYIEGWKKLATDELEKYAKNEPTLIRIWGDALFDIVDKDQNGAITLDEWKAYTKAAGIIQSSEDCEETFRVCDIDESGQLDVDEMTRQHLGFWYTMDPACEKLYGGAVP

Turning to `O=C(Cc1ccc(O)cc1)Nc1ncc(-c2ccc(O)cc2)nc1Cc1ccccc1` [Coelenteramide], at apoaequorin [1], the “Semi-synthetic gFP (EDTA-containing buffer) Fluorescence intensity (rlu)” value was 165.2 rlu and the “Semi-synthetic gFP (EDTA-containing buffer) Maximum fluorescence wavelength λmax (nm)” value stood at 482.5 nm. In data set [2] (setting [5]), the “Coelenteramide (Buffer containing CaCl2) Fluorescence intensity (rlu)” value turned out to be 5.9 rlu and the “Coelenteramide (Buffer containing CaCl2) Maximum fluorescence wavelength λmax (nm)” value was found to be 457.0 nm. In data set [2] (setting [6]), the “Coelenteramide (EDTA-containing buffer) Fluorescence intensity (rlu)” value is 4.6 rlu and the “Coelenteramide (EDTA-containing buffer) Maximum fluorescence wavelength λmax (nm)” value is reported as 458.0 nm. For the same compound, at apoaequorin [3], the Fluorescence intensity is listed as 151.2 rlu and the “Semi-synthetic BFP (Buffer containing CaCl2) Maximum fluorescence wavelength λmax (nm)” value turned out to be 468.5 nm. Further, at apoaequorin [4], the “Luciferase activity of semi-synthetic BFP (%)” value is given as 100.0%.

For the origin of these results see US9056840B2, “Coelenterazine analogues and coelenteramide analogues” (JNC Corporation, priority 2010, dated 2015).
